The species named for data set [1] is Homo sapiens. The experiment in a line: Selectivity for CB1 receptor over CB2 receptor.
Data set [2] deals with Cannabinoid receptor 2 (Homo sapiens) (UniProt P34972). In words: Binding affinity to CB2 receptor.
The nature of data set [3]: in vivo. The settings on record: rat, plasma, po, 10 mg/kg.
Description: AUC in rat at 10 mg/kg, po after 6 hrs

As usually defined, the Ki is a measure of affinity in units of concentration, obtained from inhibition or displacement. Higher therefore signals weaker binding. One may read the AUC as the area under the concentration-time curve, a measure of exposure.

Chain of Cannabinoid receptor 2 (Homo sapiens) (P34972 whole entry, looked up): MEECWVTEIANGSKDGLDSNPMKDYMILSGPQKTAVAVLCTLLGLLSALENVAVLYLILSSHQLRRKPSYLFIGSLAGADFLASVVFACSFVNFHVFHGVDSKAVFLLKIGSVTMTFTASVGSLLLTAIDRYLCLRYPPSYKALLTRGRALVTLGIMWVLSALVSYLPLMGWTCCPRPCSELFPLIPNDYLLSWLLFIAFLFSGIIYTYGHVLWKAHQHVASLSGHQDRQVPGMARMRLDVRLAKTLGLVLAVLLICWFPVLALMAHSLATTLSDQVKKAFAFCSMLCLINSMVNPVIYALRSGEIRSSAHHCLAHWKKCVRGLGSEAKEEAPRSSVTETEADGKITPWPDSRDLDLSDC

`C[C@H](NS(=O)(=O)C(F)(F)F)c1ccc(S(=O)(=O)c2ccc(C3CC3)cc2S(=O)(=O)c2ccccc2F)cc1`: the Ratio Ki in data set [1] amounted to 2240. The molecule further showed a Ki in data set [2] of 1.4 nM.
For `C[C@H](NS(=O)(=O)C(F)(F)F)c1ccc(S(=O)(=O)c2ccc(Cl)cc2S(=O)(=O)c2c(F)cccc2N2CCOCC2)cc1`, in data set [1], the Ratio Ki turned out to be 18.
`CCNC(=O)N[C@@H](C)c1ccc(S(=O)(=O)c2ccc(Cl)cc2S(=O)(=O)c2ccccc2F)cc1` displayed a Ki in data set [2] of more than 10000 nM.
In the case of `C[C@H](NCCC(F)(F)F)c1ccc(S(=O)(=O)c2ccc(Cl)cc2S(=O)(=O)c2ccccc2F)cc1`, in data set [1], the Ratio Ki is 105.
On the same count and under the same terms, to `CCCS(=O)(=O)c1cc(Cl)ccc1S(=O)(=O)c1ccc([C@H](C)NS(C)(=O)=O)cc1` belongs 57; to `C[C@H](NS(C)(=O)=O)c1ccc(S(=O)(=O)c2ccc(Cl)cc2S(=O)(=O)c2ccccn2)cc1`, 4400.
Take `C[C@H](NS(=O)(=O)C(F)(F)F)c1ccc(S(=O)(=O)c2ccc(Cl)cc2S(=O)(=O)N2CCCCC2)cc1`: in data set [1], the Ratio Ki was 231. Further, the affinity in data set [2], expressed as Ki, was 58 nM.
Take `C[C@H](NCC(F)(F)F)c1ccc(S(=O)(=O)c2ccc(Cl)cc2S(=O)(=O)c2ccccc2F)cc1`: the Ratio Ki in data set [1] is 325.
As for `CNS(=O)(=O)c1cc(Cl)ccc1S(=O)(=O)c1ccc([C@H](C)NS(C)(=O)=O)cc1`, the Ratio Ki in data set [1] came to 64.
On to `C[C@H](NS(C)(=O)=O)c1ccc(S(=O)(=O)c2ccc(Cl)cc2S(=O)(=O)C2CCCCC2)cc1`, for which the Ratio Ki in data set [1] is 345. This molecule also showed a Ki in data set [2] of 8.9 nM.
Consider `C[C@H](NS(=O)(=O)C(F)(F)F)c1ccc(S(=O)(=O)c2ccc(N3CCNCC3)cc2S(=O)(=O)c2ccccc2F)cc1`, for which the Ratio Ki in data set [1] turned out to be 31.
For `C[C@H](NS(=O)(=O)C(F)(F)F)c1ccc(S(=O)(=O)c2ccc(Cl)cc2S(=O)(=O)c2ncccn2)cc1`, the Ratio Ki in data set [1] was determined as 859. The inhibition constant (Ki) in data set [2] amounted to 21 nM.
With `C[C@H](NS(=O)(=O)C(F)(F)F)c1ccc(S(=O)(=O)c2ccc(C(F)(F)F)cc2S(=O)(=O)c2ccccc2F)cc1`, in data set [1], the Ratio Ki stood at 2080.
Consider `C[C@H](NS(=O)(=O)C(F)(F)F)c1ccc(S(=O)(=O)c2ccc(O)cc2S(=O)(=O)c2ccccc2F)cc1`, for which the Ratio Ki in data set [1] was determined as 1570.
As to `C[C@H](NS(=O)(=O)C(F)(F)F)c1ccc(S(=O)(=O)c2ccc(Cl)cc2S(=O)(=O)c2c(F)cccc2N(C)C)cc1`, in data set [1], the Ratio Ki is 60. In data set [2], this molecule gave a Ki of 115 nM.
Consider `CNc1cccc(F)c1S(=O)(=O)c1cc(Cl)ccc1S(=O)(=O)c1ccc([C@H](C)NS(=O)(=O)C(F)(F)F)cc1`, for which the Ratio Ki in data set [1] was 212.
For `C[C@H](NC(=O)C(F)(F)F)c1ccc(S(=O)(=O)c2ccc(Cl)cc2S(=O)(=O)c2ccccc2F)cc1`, the Ratio Ki in data set [1] worked out at 784.
Turning to `C[C@H](NS(=O)(=O)C(F)(F)F)c1ccc(S(=O)(=O)c2ccc(N)cc2S(=O)(=O)c2ccccc2F)cc1`, the Ratio Ki in data set [1] worked out at 170.
As for `C[C@H](NS(C)(=O)=O)c1ccc(S(=O)(=O)c2ccc(Cl)cc2S(=O)(=O)NS(C)(=O)=O)cc1`, in data set [1], the Ratio Ki came out at 36. For the same molecule, the Ki in data set [2] was found to be 2750 nM.
The corresponding values for `C[C@H](NS(=O)(=O)C(F)(F)F)c1ccc(S(=O)(=O)c2ccc(Cl)cc2S(=O)(=O)c2c(F)cccc2NC2CC2)cc1` are 688 and 14.4 nM.
For `C[C@H](NS(C)(=O)=O)c1ccc(S(=O)(=O)c2ccc(Cl)cc2S(=O)(=O)c2cccc[n+]2[O-])cc1`, the Ratio Ki in data set [1] was 840.
For `C[C@H](NS(C)(=O)=O)c1ccc(S(=O)(=O)c2ccc(Cl)cc2S(=O)(=O)c2ccccc2F)cc1`, the Ratio Ki in data set [1] turned out to be 4390. In data set [3], this molecule gave an AUC at 6 h of 6.33 µM·h.
For `CCOc1ccc(S(=O)(=O)c2ccc([C@H](C)NS(=O)(=O)C(F)(F)F)cc2)c(S(=O)(=O)c2ccccc2F)c1`, the Ratio Ki in data set [1] worked out at 1960. This molecule yielded an inhibition constant (Ki) in data set [2] of 0.9 nM.
Take `C[C@H](NS(=O)(=O)C(F)(F)F)c1ccc(S(=O)(=O)c2ccc(Cl)cc2S(=O)(=O)N2CCOCC2)cc1`: in data set [1], the Ratio Ki is 99. The molecule further returned a Ki in data set [2] of 192 nM.
Consider `C[C@H](NS(=O)(=O)C(F)(F)F)c1ccc(S(=O)(=O)c2ccc(NC3CC3)cc2S(=O)(=O)c2ccccc2F)cc1`, for which the Ratio Ki in data set [1] stood at 66. Besides, affinity in data set [2] was put at a Ki of 4.9 nM.
The corresponding values for `COCCOc1ccc(S(=O)(=O)c2ccc([C@H](C)NS(=O)(=O)C(F)(F)F)cc2)c(S(=O)(=O)c2ccccc2F)c1` are 1600 and 2.5 nM.
`C[C@H](NS(=O)(=O)C(F)(F)F)c1ccc(S(=O)(=O)c2ccc(OC(F)(F)F)cc2S(=O)(=O)c2ccccc2F)cc1`: the Ratio Ki in data set [1] worked out at 525.
On to `CC(=O)N[C@@H](C)c1ccc(S(=O)(=O)c2ccc(Cl)cc2S(=O)(=O)c2ccccc2F)cc1`, for which the Ratio Ki in data set [1] was 250. In data set [2], the Ki amounted to 60.7 nM.
As for `C[C@H](N)c1ccc(S(=O)(=O)c2ccc(Cl)cc2S(=O)(=O)c2ccccc2F)cc1`, the Ratio Ki in data set [1] worked out at 14.
Turning to `C[C@H](NS(C)(=O)=O)c1ccc(S(=O)(=O)c2ccc(Cl)cc2S(=O)(=O)N(C)C)cc1`, the Ratio Ki in data set [1] was 58.
In the case of `C[C@H](NS(C)(=O)=O)c1ccc(S(=O)(=O)c2ccc(Cl)cc2S(=O)(=O)c2cccc3cccnc23)cc1`, the Ratio Ki in data set [1] amounted to 31.
For `Cc1occc1S(=O)(=O)c1cc(Cl)ccc1S(=O)(=O)c1ccc([C@H](C)NS(C)(=O)=O)cc1`, the Ratio Ki in data set [1] amounted to 538. Besides, the Ki in data set [2] amounted to 129 nM.
For the molecule `C[C@H](NS(=O)(=O)C(F)(F)F)c1ccc(S(=O)(=O)c2ccc(Cl)cc2S(=O)(=O)c2ccccn2)cc1`, in data set [1], the Ratio Ki came out at 1150. Also, in data set [2], affinity was put at a Ki of 3.6 nM.
The like results for `C[C@H](NS(=O)(=O)C(F)(F)F)c1ccc(S(=O)(=O)c2ccc(Cl)cc2S(=O)(=O)NC(C)(C)C)cc1` were, in that order, 123 and 136 nM.
On to `Cc1ccc(S(=O)(=O)c2ccc([C@H](C)NS(=O)(=O)C(F)(F)F)cc2)c(S(=O)(=O)c2ccccc2F)c1`, for which, in data set [1], the Ratio Ki was found to be 2290. In data set [2], this molecule showed an inhibitory constant (Ki) of 1.1 nM.
On to `C[C@H](NS(=O)(=O)C(F)(F)F)c1ccc(S(=O)(=O)c2ccccc2S(=O)(=O)c2ccccc2F)cc1`, for which, in data set [1], the Ratio Ki came to 426.
On to `C[C@H](NS(=O)(=O)C(F)(F)F)c1ccc(S(=O)(=O)c2ccc(Cl)cc2S(=O)(=O)c2c(F)cccc2F)cc1`, for which, in data set [1], the Ratio Ki was determined as 642. Also, the Ki in data set [2] was 5.8 nM.
In the case of `C[C@H](NS(=O)(=O)C(F)(F)F)c1ccc(S(=O)(=O)c2ccc(Cl)cc2S(=O)(=O)c2c(N)cccc2F)cc1`, in data set [1], the Ratio Ki was found to be 1190.

Values taken from ChEMBL document CHEMBL1139959, “Optimization of triaryl bis-sulfones as cannabinoid-2 receptor ligands” (Bioorg Med Chem Lett, 2007).
